Laboratory results as given in BigSolDB 2.1.

CS(=O)(=O)c1ccc(F)cc1
Conditions | solubility (mole fraction)
in acetone, 290.53 K | 0.226
in acetone, 298.3 K | 0.282
in acetone, 304.2 K | 0.331
in chloroform, 288.4 K | 0.229
in chloroform, 293.25 K | 0.262
in chloroform, 299.93 K | 0.312
in chloroform, 305 K | 0.352
in ethanol, 291.07 K | 0.0162
in ethanol, 297.34 K | 0.0302
in ethanol, 303.07 K | 0.0471
in ethanol, 308.66 K | 0.0744
in ethyl acetate, 293.28 K | 0.189
in ethyl acetate, 299.67 K | 0.23
in ethyl acetate, 305.75 K | 0.278
in ethyl acetate, 313.05 K | 0.35
in toluene, 290.84 K | 0.0422
in toluene, 298.86 K | 0.0744
in toluene, 304.15 K | 0.105
in toluene, 306.87 K | 0.125
